Measured values as given in patent US20260124309A1, “STAT6 DEGRADERS AND USES THEREOF” (Kymera Therapeutics, Inc., priority 2023, published 2026).

Assays:
[1] = target: T1, biotinylated truncated STAT6 (123-632)-avi (Homo sapiens, UniProt P42226); assay: STAT6 HTRF binding assay; settings: 0.15 nM biotinylated truncated STAT6 (123-632)-avi, 20 nM fluorescein-labeled probe
T1 construct: biotinylated truncated STAT6 (123-632)-avi purified from E. coli; made in house; host or cells: E. coli
T1 sequence (P42226 123-632 limits assumed): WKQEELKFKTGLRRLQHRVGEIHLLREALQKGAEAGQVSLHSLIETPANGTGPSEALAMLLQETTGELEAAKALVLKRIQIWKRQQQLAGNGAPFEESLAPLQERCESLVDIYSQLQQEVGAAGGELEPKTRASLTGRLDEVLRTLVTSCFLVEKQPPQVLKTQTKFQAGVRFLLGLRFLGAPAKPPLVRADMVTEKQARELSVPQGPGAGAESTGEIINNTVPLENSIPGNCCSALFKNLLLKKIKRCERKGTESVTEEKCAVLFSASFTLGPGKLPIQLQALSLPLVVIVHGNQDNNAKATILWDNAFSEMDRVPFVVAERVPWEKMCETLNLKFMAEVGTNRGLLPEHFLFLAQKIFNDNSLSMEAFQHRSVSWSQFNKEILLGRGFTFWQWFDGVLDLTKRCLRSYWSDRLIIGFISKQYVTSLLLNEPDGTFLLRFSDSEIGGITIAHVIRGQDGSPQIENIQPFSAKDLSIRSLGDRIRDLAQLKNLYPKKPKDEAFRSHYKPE
Protocol: HTRF binding assays were performed using 0.15 nM biotinylated truncated STAT6 (123-632)-avi purified from E. coli, 1× Streptavidin-terbium (CisBio) prepared by mixing SA-Tb in PPI detection buffer (CisBio), 20 nM proprietary fluorescein-labeled probe, and test compounds in assay buffer consisting of 50 mM HEPES-Na pH 7.5, 100 mM NaCl, 1 mM EDTA, 2 mM DTT, 0.1% Tween-20 with a final volume of 20 uL. Compound stocks were dissolved at 10 mM in 100% DMSO and 11 point titration with 3 fold serial dilution was performed in white, opaque 384 well microplates. Reaction plates were incubated at room temperature for 30 minutes. Plates were centrifuged at low rpm for 5 mins, and the ratio of fluorescence intensities were measured at emission wavelengths for fluorescein acceptor (520 nm) and terbium donor (495 nm) on Envision Plate reader. % Inhibition was calculated from the 520/495 ratio generated by using proprietary positive control compound for 100% inhibition and DMSO only reactions for 0% inhibition. Data was processed and dose response curves were generated using GraphPad Prism to determine the concentration required for inhibiting 50% of the HTRF signal (IC50).
The letter codes for IC50 (μM) include: A (<0.1 μM); B (0.1-1 μM); C (>1-10 μM); D (>10-100 μM); E (>100 μM); and F (not tested).

STAT6 = target: T2, STAT6 (Homo sapiens, UniProt P42226); assay: STAT6 MSD degradation in A549 cells; assay type: cell-based; settings: 24 h
T2 construct: endogenous in cells; host or cells: A549
T2 sequence (P42226 1-847): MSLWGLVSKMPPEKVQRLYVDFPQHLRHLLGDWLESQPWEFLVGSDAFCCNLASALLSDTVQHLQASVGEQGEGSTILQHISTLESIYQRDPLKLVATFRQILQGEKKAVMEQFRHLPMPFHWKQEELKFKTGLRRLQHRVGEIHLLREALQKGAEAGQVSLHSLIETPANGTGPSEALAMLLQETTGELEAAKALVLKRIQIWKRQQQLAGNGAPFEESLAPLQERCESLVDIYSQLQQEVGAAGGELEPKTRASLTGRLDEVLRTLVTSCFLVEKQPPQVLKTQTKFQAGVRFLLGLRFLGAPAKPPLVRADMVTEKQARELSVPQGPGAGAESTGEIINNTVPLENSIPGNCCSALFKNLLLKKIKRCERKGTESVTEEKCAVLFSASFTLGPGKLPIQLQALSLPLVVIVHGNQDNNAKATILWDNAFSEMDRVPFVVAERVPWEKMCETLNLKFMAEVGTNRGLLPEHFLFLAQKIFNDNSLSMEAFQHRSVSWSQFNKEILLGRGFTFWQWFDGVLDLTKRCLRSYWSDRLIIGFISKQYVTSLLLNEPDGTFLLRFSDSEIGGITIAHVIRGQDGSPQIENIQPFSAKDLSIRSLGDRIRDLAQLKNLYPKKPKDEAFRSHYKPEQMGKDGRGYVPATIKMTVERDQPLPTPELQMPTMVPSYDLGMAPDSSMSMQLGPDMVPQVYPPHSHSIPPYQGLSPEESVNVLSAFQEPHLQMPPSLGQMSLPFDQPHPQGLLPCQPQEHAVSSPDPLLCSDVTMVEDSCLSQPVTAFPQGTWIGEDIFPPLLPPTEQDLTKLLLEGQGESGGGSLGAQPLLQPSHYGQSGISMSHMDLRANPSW
Protocol: Degradation of STAT6 in cells was quantitatively measured using Meso Scale Discovery (MSD) technology. A549 cells were seeded in 96-well plates with a density of 1.5×10e4 to 5×10e5 cells per well in 100 μl fresh media. Compounds were then added to the assay plates with a final top concentration of up to 10 uM in a 1:3 dilution series with total of 9 doses. The assay plates were then incubated for 4 to 24 hours at 37° C. under 5% CO2. The assay plates were then centrifuged for 5 minutes and the cell pellets were treated with 100 μl/well RIPA lysis buffer (Boston Bioproducts, BP-115D) with protease and phosphatase inhibitors (Roche, 05892791001 and 04906837001). To prepare the MSD assay plates (MSD, L15XA), the plates were coated with the capture antibody (Abnova, H00006778) in PBS, at 40 μl/well. The plates were then incubated overnight at 4° C., washed 1 time with 150 μl/well TBST buffer (Cell Signaling Technology, #9997S) and blocked with 150 μl/well blocking buffer (MSD, R93BA-4). Cell lysates were then added to MSD assay plates and the plates were incubated at room temperature for 1 hour. The plates were then washed 3 times with 150 μl/well TBST buffer and 25 μl/well primary detection antibody (Cell Signaling Technology, #5397S). The assay plates were then incubated at room temperature for 1 hour, washed 3 times with 150 μl/well TBST buffer, and 25 μl/well secondary detection antibody, SULFO-TAG anti-rabbit antibody (MSD, R32AB-1) were added. The assay plates were then incubated at room temperature for 1 hour, washed 3 times with 150 μl/well TBST buffer, and 150 μl/well MSD reading buffer (MSD, R92TC-2) were added. The plates were then analyzed by an MSD reader. The data was analyzed by GraphPad Prism and the dose dependent STAT6 degradation was fit using the four-parameter inhibitor vs. response nonlinear regression.
The letter codes for DC50 (nM) include: A (<1 nM); B (1-10 nM); C (>10-100 nM); D (>100-1000 nM); E (>1000 nM); and F (not tested). The letter codes for Dmax (oo) include: A (>90%); B (>70-90%); C (>50-70%); D ([…]); and F (not tested).

| Structure (SMILES) | IC50 ([1]; 30 minutes at room temperature) [nM] | DC50 (STAT6) [nM] | Dmax (STAT6) [%] | IC50 ([1]; HTRF binding) [nM] |
| --- | --- | --- | --- | --- |
| CN(C)C(=O)c1cc2c(F)c(C3CCCN(C(=O)CCn4cccn4)C3)cc(-c3ccc(N4CCN(CCc5ccc(C6CCC(=O)NC6=O)c(Cl)c5)CC4)cc3)c2o1 (single isomer, unassigned) [Example I-281] | 100 to 1000 | 10 to 100 | 70 to 90 |  |
| CN(C)C(=O)c1cc2c(-c3ccc(C4CCN(c5ccc([C@@H]6CCC(=O)NC6=O)cc5F)CC4)cc3)cc(C3=CCCN(C(=O)CCn4cccn4)C3)c(F)c2[nH]1 (single isomer, unassigned) [Example I-742] |  | < 1 | > 90 | < 100 |
| CN(C)C(=O)c1cc2c(-c3ccc(C4CCN(c5ccc([C@H]6CCC(=O)NC6=O)cc5F)CC4)cc3)cc(C3=CCCN(C(=O)CCn4cccn4)C3)c(F)c2[nH]1 (single isomer, unassigned) [Example I-743] |  | < 1 | > 90 | < 100 |
| COc1cc(N2CCN(c3ccc(-c4cc(C5=CCCN(C(=O)CCn6cccn6)C5)c(F)c5[nH]c(C(=O)N(C)C)cc45)c(F)c3F)CC2)c(F)cc1N[C@@H]1CCC(=O)NC1=O (single isomer, unassigned) [Example I-744] |  | < 1 | > 90 | < 100 |
| COc1cc(N2CCN(c3ccc(-c4cc(C5=CCCN(C(=O)CCn6cccn6)C5)c(F)c5[nH]c(C(=O)N(C)C)cc45)c(F)c3F)CC2)c(F)cc1N[C@H]1CCC(=O)NC1=O (single isomer, unassigned) [Example I-745] |  | < 1 | > 90 | < 100 |
| Cc1cc(C2CCN(c3cccc4c3n(C)c(=O)n4[C@@H]3CCC(=O)NC3=O)CC2)ccc1-c1cc(C2=CCCN(C(=O)C(C)C)C2)c(F)c2[nH]c(C(=O)N(C)C)cc12 (single isomer, unassigned) [Example I-790] |  | 1 to 10 | > 90 | 1000 to 10000 |
| Cc1cc(C2CCN(c3cccc4c3n(C)c(=O)n4[C@H]3CCC(=O)NC3=O)CC2)ccc1-c1cc(C2=CCCN(C(=O)C(C)C)C2)c(F)c2[nH]c(C(=O)N(C)C)cc12 (single isomer, unassigned) [Example I-791] |  | < 1 | > 90 | 1000 to 10000 |
| COc1cc(N2CCC(c3ccc(-c4cc(C5=CCCN(C(=O)CCn6cccn6)C5)c(F)c5[nH]c(C(=O)N(C)C)cc45)c(OC(F)(F)F)c3)CC2)c(F)cc1N[C@@H]1CCC(=O)NC1=O (single isomer, unassigned) [Example I-792] |  | 1 to 10 | 70 to 90 | < 100 |
| COc1cc(N2CCC(c3ccc(-c4cc(C5=CCCN(C(=O)CCn6cccn6)C5)c(F)c5[nH]c(C(=O)N(C)C)cc45)c(OC(F)(F)F)c3)CC2)c(F)cc1N[C@H]1CCC(=O)NC1=O (single isomer, unassigned) [Example I-793] |  | 1 to 10 | 70 to 90 | < 100 |
| COc1cc(N2CCN(c3ccc(-c4cc(C5=CCCN(C(=O)CCn6cccn6)C5)c(F)c5[nH]c(C(=O)N(C)C)cc45)cc3)CC2)c(F)cc1N[C@@H]1CCC(=O)NC1=O (single isomer, unassigned) [Example I-794] |  | < 1 | 70 to 90 |  |
| COc1cc(N2CCN(c3ccc(-c4cc(C5=CCCN(C(=O)CCn6cccn6)C5)c(F)c5[nH]c(C(=O)N(C)C)cc45)cc3)CC2)c(F)cc1N[C@H]1CCC(=O)NC1=O (single isomer, unassigned) [Example I-795] |  | < 1 | > 90 | < 100 |
| CN(C)C(=O)c1cc2c(-c3ccc(C4CCN(c5ccc(N[C@H]6CCC(=O)NC6=O)cc5F)CC4)cc3)cc(C3=CCCN(C(=O)CCn4cccn4)C3)c(F)c2[nH]1 (single isomer, unassigned) [Example I-796] |  | < 1 | 70 to 90 | < 100 |
| CN(C)C(=O)c1cc2c(-c3ccc(C4CCN(c5ccc(N[C@@H]6CCC(=O)NC6=O)cc5F)CC4)cc3)cc(C3=CCCN(C(=O)CCn4cccn4)C3)c(F)c2[nH]1 (single isomer, unassigned) [Example I-797] |  | 1 to 10 | 70 to 90 | < 100 |
| CC(=O)N1CCC=C(c2cc(-c3ccc(C4CCN(c5cccc6c5n(C)c(=O)n6C5CCC(=O)NC5=O)CC4)cc3C)c3cc(C(=O)N(C)C)[nH]c3c2F)C1 (stereo not drawn) [Example I-455, 6-(1-Acetyl-1,2,5,6-tetrahydropyridin-3-yl)-4-(4-(1-(1-(2,6-dioxopiperidin-3-yl)-3-methyl-2-oxo-2,3-dihydro-1H-benzo[d]1734midazole-4-yl)piperidin-4-yl)-2-methylphenyl)-7-fluoro-N,N-dim ethyl-1H-indole-2-carboxamide] |  | < 1 | > 90 | 1000 to 10000 |
| COc1cc(N2CCN(CCOCC3CCN(c4ccnc(N5CC[C@@H]6[C@H]5CCCN6c5cccc(F)c5)c4)CC3)CC2)ccc1-c1cc(C2=CCCN(C(=O)CCn3ccnn3)C2)c(F)c2[nH]c(C(=O)N(C)C)cc12 [Example I-1049, 4-[4-(4-{2-[(1-{2-[(3aR,7aR)-4-(3-fluorophenyl)-hexahydro-2H-pyrrolo[3,2-b]pyridin-1-yl]pyridin-4-yl}piperidin-4-yl)methoxy]ethyl}piperazin-1-yl)-2-methoxyphenyl]-7-fluoro-N,N-dimethyl-6-{1-[3-(1,2,3-triazol-1-yl)propanoyl]-5,6-dihydro-2H-pyridin-3-yl}-1H-indole-2-carboxamide] |  |  |  | < 100 |
